# In patent US12558428B2, “Heterobifunctional compounds and their use in treating disease” (Halda Therapeutics OpCo, Inc., priority 2024, dated 2026):
# Columns and labels:
# Assay type in all cases: cell-based
# [1] = tested on: T-Rex 293 cells having increased expression of estrogen receptor alpha protein; experiment: Cellular growth inhibition assay, T-Rex 293 cells, (+) doxycycline; conditions: T-REx-293, 72 h, Table 7-A; T-Rex 293 cells with doxycycline (increased ERα expression); 72 hours; CellTiter-Glo; read-out: (+) Dox GI50
# Outline: (§1)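 Growth of a doxycycline-inducible ERα T-Rex 293 clone, induced or not with 3 ng/mL doxycycline, was followed for 72 h with test compound in hormone-depleted medium. CellTiter-Glo luminescence gave GI50.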
# [2] = tested on: T-Rex 293 cells lacking increased expression of estrogen receptor alpha protein; experiment: Cellular growth inhibition assay, T-Rex 293 cells, (−) doxycycline; conditions: T-REx-293, 72 h, Table 7-A; T-Rex 293 cells without doxycycline (lacking increased ERα expression); 72 hours; CellTiter-Glo; read-out: (−) Dox GI50
# Outline: as §1
# [3] = tested on: MCF7 cells (ATCC #HTB-22); experiment: Cellular growth inhibition assay, MCF7 cells purchased from ATCC; conditions: Homo sapiens, MCF7, 144 h, Table 8-A; MCF7 cells purchased from ATCC; six days; CellTiter-Glo; read-out: GI50
# Outline: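 GI50 values come from a four-parameter fit of CellTiter-Glo 2.0 luminescence after six days of compound exposure at 37° C. Seeding density depended on the source: 225 cells/well for ECACC MCF7, 1,500 for ATCC. Medium was RPMI 1640 with 10% FBS and 0.2 U/ml insulin.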
Structure (SMILES),GI50 [1],GI50 [2],GI50 [3]
Cc1sc2c(c1C)C(c1ccc(C3CN(C(=O)C4CCN(CC5CN(c6ccc([C@@H]7c8ccc(O)cc8CC[C@@H]7c7ccccc7)cc6)C5)CC4)C3)cc1)=N[C@@H](C)c1nnc(C)n1-2 [III-172],< 50 nM,50 to 500 nM,50 to 500 nM
Cc1sc2c(c1C)C(c1ccc(N3CC(CN4CCC(C(=O)N5CC(c6ccc([C@@H]7c8ccc(O)cc8CC[C@@H]7c7ccccc7)cc6)C5)CC4)C3)cc1)=N[C@@H](C)c1nnc(C)n1-2 [III-173],< 50 nM,50 to 500 nM,< 50 nM
CC1=C(C)C2C(c3ccc(N4CCC(C(=O)N5CC(c6ccc([C@@H]7c8ccc(O)cc8CC[C@@H]7c7ccccc7)cc6)C5)CC4)cc3)N[C@@H](Cc3ncco3)c3nnc(C)n3C2S1 (stereo partly drawn) [III-174],< 50 nM,50 to 500 nM,< 50 nM
Cc1sc2c(c1C)C(c1ccc(C3CN(C(=O)C4CCN(CC5CN(c6ccc([C@@H]7c8ccc(O)cc8CC[C@@H]7c7ccccc7)cc6)C5)CC4)C3)cc1)=N[C@@H](Cc1ncco1)c1nnc(C)n1-2 [III-175],< 50 nM,50 to 500 nM,< 50 nM
Cc1sc2c(c1C)C(c1ccc(N3CC(CN4CCC(C(=O)N5CC(c6ccc([C@@H]7c8ccc(O)cc8CC[C@@H]7c7ccccc7)cc6)C5)CC4)C3)cc1)=N[C@@H](Cc1ncco1)c1nnc(C)n1-2 [III-176],< 50 nM,50 to 500 nM,< 50 nM
Cc1sc2c(c1C)C(c1ccc(N3CC(CN4CCC(O)(CN5CC(c6ccc([C@@H]7c8ccc(O)cc8CC[C@@H]7c7ccccc7)cc6)C5)CC4)C3)cc1)=N[C@@H](C)c1nnc(C)n1-2 [III-177],< 50 nM,50 to 500 nM,50 to 500 nM
Cc1sc2c(c1C)C(c1ccc(N3CC(CC4(O)CCN(c5ccc([C@@H]6c7ccc(O)cc7CC[C@@H]6c6ccccc6)cc5)CC4)C3)cc1)=N[C@@H](Cc1ncco1)c1nnc(C)n1-2 [III-178],< 50 nM,50 to 500 nM,< 50 nM
Cc1sc2c(c1C)C(c1ccc(N3CC(CN4CCN(C(=O)C5CN(c6ccc([C@@H]7c8ccc(O)cc8CC[C@@H]7c7ccccc7)cc6)C5)CC4)C3)cc1)=N[C@@H](Cc1ncco1)c1nnc(C)n1-2 [III-179],< 50 nM,< 50 nM,< 50 nM
Cc1sc2c(c1C)C(c1ccc(N3CC(CN4CCC(O)(CN5CC(c6ccc([C@@H]7c8ccc(O)cc8CC[C@@H]7c7ccccc7)cc6)C5)CC4)C3)cc1)=N[C@@H](Cc1ncco1)c1nnc(C)n1-2 [III-180],< 50 nM,50 to 500 nM,< 50 nM
Cc1sc2c(c1C)C(c1ccc(N3CC(O)(CN4CCN(CC5CN(c6ccc([C@@H]7c8ccc(O)cc8CC[C@@H]7c7ccccc7)cc6)C5)CC4)C3)cc1)=N[C@@H](Cc1ncco1)c1nnc(C)n1-2 [III-181],< 50 nM,50 to 500 nM,< 50 nM
Cc1sc2c(c1C)C(c1ccc(N3CCC(O)(CN4CCN(c5ccc([C@@H]6c7ccc(O)cc7CC[C@@H]6c6ccc(F)cc6F)cc5)CC4)CC3)cc1)=N[C@@H](C)c1nnc(C)n1-2 [III-182],< 50 nM,500 to 2500 nM,50 to 500 nM
Cc1sc2c(c1C)C(c1ccc(N3CCC(O)(CN4CCN(c5ccc([C@H]6c7ccc(O)cc7CC[C@H]6c6ccc(F)cc6F)cc5)CC4)CC3)cc1)=N[C@@H](C)c1nnc(C)n1-2 [III-183],< 50 nM,500 to 2500 nM,50 to 500 nM
Cc1sc2c(c1C)C(c1ccc(N3CCC(O)(CN4CCN(c5ccc([C@H]6c7ccc(O)cc7CC[C@H]6c6ccc(F)cc6)cc5)CC4)CC3)cc1)=N[C@@H](C)c1nnc(C)n1-2 [III-184],< 50 nM,50 to 500 nM,50 to 500 nM
Cc1sc2c(c1C)C(c1ccc(N3CCC(O)(CN4CCN(c5ccc([C@@H]6c7ccc(O)cc7CC[C@@H]6c6ccc(F)cc6)cc5)CC4)CC3)cc1)=N[C@@H](C)c1nnc(C)n1-2 [III-185],< 50 nM,500 to 2500 nM,< 50 nM
Cc1sc2c(c1C)C(c1ccc(N3CCC(O)(CN4CCN(c5cc(F)c([C@@H]6c7ccc(O)cc7CC[C@@H]6c6ccccc6)c(F)c5)CC4)CC3)cc1)=N[C@@H](C)c1nnc(C)n1-2 [III-186],< 50 nM,500 to 2500 nM,< 50 nM
Cc1sc2c(c1C)C(c1ccc(N3CCC(O)(CN4CCN(c5cc(F)c([C@H]6c7ccc(O)cc7CC[C@H]6c6ccccc6)c(F)c5)CC4)CC3)cc1)=N[C@@H](C)c1nnc(C)n1-2 [III-187],< 50 nM,50 to 500 nM,50 to 500 nM
Cc1sc2c(c1C)C(c1ccc(N3CCC(O)(CN4CCN(c5ccc([C@@H]6c7ccc(C(=O)O)cc7CC[C@@H]6c6ccccc6)cc5)CC4)CC3)cc1)=N[C@@H](C)c1nnc(C)n1-2 [III-188],< 50 nM,50 to 500 nM,50 to 500 nM

Structure (SMILES),GI50 [1],GI50 [2],GI50 [3]
Cc1sc2c(c1C)C(c1ccc(N3CCC(O)(CN4CCN(c5ccc([C@H]6c7ccc(C(=O)O)cc7CC[C@H]6c6ccccc6)cc5)CC4)CC3)cc1)=N[C@@H](C)c1nnc(C)n1-2 [III-189],> 2500 nM,> 2500 nM,50 to 500 nM
Cc1sc2c(c1C)C(c1ccc(N3CCC4(CCN(CC5CCN(c6ccc([C@@H]7c8ccc(O)cc8CC[C@@H]7c7ccccc7)cc6)CC5)CC4)C3)cc1)=N[C@@H](C)c1nnc(C)n1-2 [III-190],< 50 nM,500 to 2500 nM,50 to 500 nM
Cc1sc2c(c1C)C(c1ccc(N3CCC4(CCN(CC5CCC(c6ccc([C@@H]7c8ccc(O)cc8CC[C@@H]7c7ccccc7)cc6)CC5)C4)CC3)cc1)=N[C@@H](C)c1nnc(C)n1-2 (stereo partly drawn) [III-191],< 50 nM,50 to 500 nM,50 to 500 nM
Cc1sc2c(c1C)C(c1ccc(N3CCC(O)(CN4CCN(c5ccc([C@H]6c7ccc(O)cc7CC[C@H]6c6ccc(F)cc6F)cc5)CC4)CC3)cc1)=N[C@H](Cc1ncco1)c1nnc(C)n1-2 [III-192],> 2500 nM,> 2500 nM,> 2500 nM
Cc1sc2c(c1C)C(c1ccc(N3CCC(O)(CN4CCN(c5ccc([C@@H]6c7ccc(O)cc7CC[C@@H]6c6ccc(F)cc6F)cc5)CC4)CC3)cc1)=N[C@H](Cc1ncco1)c1nnc(C)n1-2 [III-193],50 to 500 nM,500 to 2500 nM,50 to 500 nM
Cc1sc2c(c1C)C(c1ccc(N3CCC(O)(CN4CCN(c5cc(F)c([C@H]6c7ccc(O)cc7CC[C@H]6c6ccccc6)c(F)c5)CC4)CC3)cc1)=N[C@@H](Cc1ncco1)c1nnc(C)n1-2 [III-194],> 2500 nM,> 2500 nM,> 2500 nM
Cc1sc2c(c1C)C(c1ccc(N3CCC(O)(CN4CCN(c5cc(F)c([C@H]6c7ccc(O)cc7CC[C@H]6c6ccccc6)c(F)c5)CC4)CC3)cc1)=N[C@H](Cc1ncco1)c1nnc(C)n1-2 [III-195],> 2500 nM,> 2500 nM,500 to 2500 nM
Cc1sc2c(c1C)C(c1ccc(N3CCC(O)(CN4CCN(c5cc(F)c([C@@H]6c7ccc(O)cc7CC[C@@H]6c6ccccc6)c(F)c5)CC4)CC3)cc1)=N[C@@H](Cc1ncco1)c1nnc(C)n1-2 [III-196],< 50 nM,50 to 500 nM,< 50 nM
Cc1sc2c(c1C)C(c1ccc(N3CCC(O)(CN4CCN(c5cc(F)c([C@@H]6c7ccc(O)cc7CC[C@@H]6c6ccccc6)c(F)c5)CC4)CC3)cc1)=N[C@H](Cc1ncco1)c1nnc(C)n1-2 [III-197],< 50 nM,50 to 500 nM,50 to 500 nM
Cc1sc2c(c1C)C(c1ccc(N3CCC(O)(CN4CCN(c5ccc([C@H]6c7ccc(C(=O)O)cc7CC[C@H]6c6ccccc6)cc5)CC4)CC3)cc1)=N[C@H](Cc1ncco1)c1nnc(C)n1-2 [III-198],> 2500 nM,> 2500 nM,> 2500 nM
Cc1sc2c(c1C)C(c1ccc(N3CCC(O)(CN4CCN(c5ccc([C@H]6c7ccc(C(=O)O)cc7CC[C@H]6c6ccccc6)cc5)CC4)CC3)cc1)=N[C@@H](Cc1ncco1)c1nnc(C)n1-2 [III-199],> 2500 nM,> 2500 nM,> 2500 nM
Cc1sc2c(c1C)C(c1ccc(N3CCC(O)(CN4CCN(c5ccc([C@@H]6c7ccc(C(=O)O)cc7CC[C@@H]6c6ccccc6)cc5)CC4)CC3)cc1)=N[C@@H](Cc1ncco1)c1nnc(C)n1-2 [III-200],< 50 nM,50 to 500 nM,< 50 nM
Cc1sc2c(c1C)C(c1ccc(N3CCC(O)(CN4CCN(c5ccc([C@@H]6c7ccc(C(=O)O)cc7CC[C@@H]6c6ccccc6)cc5)CC4)CC3)cc1)=N[C@H](Cc1ncco1)c1nnc(C)n1-2 [III-201],50 to 500 nM,50 to 500 nM,50 to 500 nM
Cc1sc2c(c1C)C(c1ccc(N3CCC4(CCN(CC5CCN(c6ccc([C@@H]7c8ccc(O)cc8CC[C@@H]7c7ccccc7)cc6)CC5)CC4)C3)cc1)=N[C@@H](Cc1ncco1)c1nnc(C)n1-2 [III-202],< 50 nM,50 to 500 nM,< 50 nM
Cc1sc2c(c1C)C(c1ccc(N3CC(CC4(F)CCN(CC5CN(c6ccc([C@@H]7c8ccc(O)cc8CC[C@@H]7c7ccccc7)cc6)C5)CC4)C3)cc1)=N[C@@H](C)c1nnc(C)n1-2 [III-203],< 50 nM,500 to 2500 nM,< 50 nM
Cc1sc2c(c1C)C(c1ccc(N3CCC(O)(CN4CCN(c5ccc([C@@H]6c7ccc(C(=O)O)cc7CC[C@@H]6c6ccc(F)cc6F)cc5)CC4)CC3)cc1)=N[C@@H](C)c1nnc(C)n1-2 [III-204],< 50 nM,500 to 2500 nM,50 to 500 nM
